pEC50: −log10 of the molar value. Like-named read-outs stand apart in the source and are kept apart here.
Biological target: CFTR (Homo sapiens, UniProt P13569)
Assay: Membrane Potential Dye, Enteroid Assay B
Assay type: cell-based
Procedure: Base medium (ADF+++) consisted of Advanced […], 2 mM Glutamax, 10 mM HEPES, 1 μg/mL penicillin/streptomycin.
Intestinal enteroid maintenance medium (IEMMN) consisted of ADF+++, 1× B27 supplement, 1× N2 supplement, 1.25 mM N-acetyl cysteine, 10 mM Nicotinamide, 50 ng/mL hEGF, 10 nM Gastrin, 1 μg/mL hR-spondin-1, 100 ng/mL hNoggin, TGF-b type 1 inhibitor A-83-01, 100 μg/mL Primocin, 10 μM P38 MAPK inhibitor SB202190.
Bath 1 Buffer consisted of 1 mM MgCl2, 160 mM NaCl, 4.5 mM KCl, 10 mM HEPES, 10 mM Glucose, 2 mM CaCl2).
Chloride Free Buffer consisted of 1 mM Magnesium Gluconate, 2 mM Calcium Gluconate, 4.5 mM Potassium Gluconate, 160 mM Sodium Gluconate, 10 mM HEPES, 10 mM Glucose.
Bath 1 Dye Solution consisted of Bath 1 Buffer, 0.04% Pluronic F127, 20 μM Methyl Oxonol, 30 μM CaCCinh-A01, 30 μM Chicago Sky Blue.
Chloride Free Dye Solution consisted of Chloride Free Buffer, 0.04% Pluronic F127, 20 μM Methyl Oxonol, 30 μM CaCCinh-A01, 30 μM Chicago Sky Blue.
Chloride Free Dye Stimulation Solution consisted of Chloride Free Dye Solution, 10 μM forskolin, 100 μM IBMX, and 300 nM Compound III.
Human intestinal epithelial enteroid cells were obtained from the Hubrecht Institute for Developmental Biology and Stem Cell Research, Utrecht, The Netherlands and expanded in T-Flasks as previously described (Dekkers J F, Wiegerinck C L, de Jonge H R, Bronsveld I, Janssens H M, de Winter-de Groot K M, Brandsma A M, de Jong N W M, Bijvelds M J C, Scholte B J, Nieuwenhuis E E S, van den Brink S, Clevers H, van der Ent C K, Middendorp S and M Beekman J M. A functional CFTR assay using primary cystic fibrosis intestinal organoids. Nat Med. 2013 July; 19(7):939-45.).
3. Enteroid Cell Harvesting and Seeding
Cells were recovered in cell recovery solution, collected by centrifugation at 650 rpm for 5 min at 4° C., resuspended in TrypLE and incubated for 5 min at 37° C. Cells were then collected by centrifugation at 650 rpm for 5 min at 4° C. and resuspended in IEMM containing 10 μM ROCK inhibitor (RI). The cell suspension was passed through a 40 μm cell strainer and resuspended at 1×10^6 cells/mL in IEMM containing 10 μM RI. Cells were seeded at 5000 cells/well into multi-well plates and incubated for overnight at 37° C., 95% humidity and 5% CO2 prior to assay.
5. Membrane Potential Dye, Enteroid Assay B
Enteroid cells were incubated with test compound in IEMM for 18-24 hours at 37° C., 95% humidity and 5% CO2. […] Briefly, cells were washed 5 times in Bath 1 Buffer. Bath 1 Dye Solution was added and the cells were incubated for 25 min at room temperature. Following dye incubation, cells were washed 3 times in Chloride Free Dye Solution. Chloride transport was initiated by addition of Chloride Free Dye Stimulation Solution and the fluorescence signal was read for 15 min. […] Chloride transport was then expressed as a percentage of the chloride transport following treatment with 1 μM (14S)-8-[3-(2-{Dispiro[2.0.2.1]heptan-7-yl}ethoxy)-1H-pyrazol-1-yl]-12,12-dimethyl-2λ^6-thia-3,9,11,18,23-pentaazatetracyclo[17.3.1.111,14.05,10]tetracosa-1(22),5,7,9,19(23),20-hexaene-2,2,4-trione, 3 μM (R)-1-(2,2-difluorobenzo[d][1,3]dioxol-5-yl)-N-(1-(2,3-dihydroxypropyl)-6-fluoro-2-(1-hydroxy-2-methylpropan-2-yl)-1H-indol-5-yl)cyclopropanecarboxamide and 300 nM acute N-[2,4-bis(1,1-dimethylethyl)-5-hydroxyphenyl]-1,4-dihydro-4-oxoquinoline-3-carboxamide triple combination control (% Activity).

[1] = Table 10, read-out: Ent. B EC50

Sequence of CFTR (P13569 with tags, fused parts or gaps DEL508-508): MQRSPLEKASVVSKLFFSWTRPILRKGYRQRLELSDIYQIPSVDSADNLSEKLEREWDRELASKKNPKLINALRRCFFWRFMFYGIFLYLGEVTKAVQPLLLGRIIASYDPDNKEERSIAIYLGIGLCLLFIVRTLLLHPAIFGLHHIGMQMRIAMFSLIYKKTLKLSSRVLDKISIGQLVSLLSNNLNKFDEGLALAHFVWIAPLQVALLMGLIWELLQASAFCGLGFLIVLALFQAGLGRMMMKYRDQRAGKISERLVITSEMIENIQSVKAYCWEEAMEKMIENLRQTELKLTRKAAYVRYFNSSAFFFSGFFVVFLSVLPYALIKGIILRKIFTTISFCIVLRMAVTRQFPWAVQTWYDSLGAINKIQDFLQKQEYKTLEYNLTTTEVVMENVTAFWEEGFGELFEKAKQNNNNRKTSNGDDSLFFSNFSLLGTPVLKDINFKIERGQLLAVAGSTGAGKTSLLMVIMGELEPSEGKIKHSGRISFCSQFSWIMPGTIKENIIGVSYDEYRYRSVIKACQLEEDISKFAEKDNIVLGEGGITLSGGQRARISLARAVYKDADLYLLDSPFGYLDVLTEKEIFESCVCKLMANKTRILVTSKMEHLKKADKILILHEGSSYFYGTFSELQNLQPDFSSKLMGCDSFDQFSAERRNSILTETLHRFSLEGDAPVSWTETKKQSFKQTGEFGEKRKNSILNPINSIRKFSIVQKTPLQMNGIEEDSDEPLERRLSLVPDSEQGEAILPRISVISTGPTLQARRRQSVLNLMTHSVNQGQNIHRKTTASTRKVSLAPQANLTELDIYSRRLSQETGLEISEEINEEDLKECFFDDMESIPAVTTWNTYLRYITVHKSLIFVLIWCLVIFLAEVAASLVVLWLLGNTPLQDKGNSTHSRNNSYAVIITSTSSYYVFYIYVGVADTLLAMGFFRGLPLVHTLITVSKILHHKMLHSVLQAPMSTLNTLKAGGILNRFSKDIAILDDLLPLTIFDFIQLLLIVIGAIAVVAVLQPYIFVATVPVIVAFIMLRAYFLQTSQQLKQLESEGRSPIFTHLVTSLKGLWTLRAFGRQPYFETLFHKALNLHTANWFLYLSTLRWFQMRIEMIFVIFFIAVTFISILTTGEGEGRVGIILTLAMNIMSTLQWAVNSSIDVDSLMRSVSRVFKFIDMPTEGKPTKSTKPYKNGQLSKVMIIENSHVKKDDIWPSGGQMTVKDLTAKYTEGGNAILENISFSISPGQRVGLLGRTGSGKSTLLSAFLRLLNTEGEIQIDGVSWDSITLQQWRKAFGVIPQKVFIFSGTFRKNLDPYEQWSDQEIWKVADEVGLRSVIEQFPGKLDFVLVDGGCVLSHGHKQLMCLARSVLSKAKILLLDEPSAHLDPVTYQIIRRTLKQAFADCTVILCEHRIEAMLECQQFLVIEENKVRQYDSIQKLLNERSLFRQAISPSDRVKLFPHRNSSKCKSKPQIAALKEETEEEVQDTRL

Row | SMILES | Ent. B Max Activity (%) (Table 9) | pEC50 (Table 9, read-out: Ent. B EC50) | Ent. B Max Activity (%) (Table 10) | pEC50 [1] | other results
1 | Cc1cccc(C)c1-c1cc2nc(n1)NS(=O)(=O)c1cccc(c1)C(=O)N(C1CC(N(C)C)C1)[C@H](CC(C)(C)C)CO2 (stereo partly shown) [Compound 254] | – | – | ++ (++ is 30-60%) | > 6.00 | –
2 | CCC(=O)N1C[C@H]2C[C@@H](C1)[C@H]2N1C(=O)c2cccc(c2)S(=O)(=O)Nc2nc(cc(-c3c(C)cccc3C)n2)OC[C@H]1CC(C)(C)C [Compound 231] | – | – | ++ (++ is 30-60%) | – | pEC50 (read-out: Ent. B EC50, Table 10): > 6.00
3 | Cc1cccc(CO)c1-c1cc2nc(n1)NS(=O)(=O)c1cccc(c1)C(=O)N(C1CC3(CC3)C1)[C@H](CC(C)C)CO2 [Compound 2, (11R)-6-[2-(Hydroxymethyl)-6-methyl-phenyl]-11-isobutyl-2,2-dioxo-12-spiro[2.3]hexan-5-yl-9-oxa-2λ^6-thia-3,5,12,19-tetrazatricyclo[12.3.1.14,8]nonadeca-1(18),4(19),5,7,14,16-hexaen-13-one] | – | – | ++ (++ is 30-60%) | > 6.00 | –
4 | Cc1cccc(C)c1-c1cc2nc(n1)NS(=O)(=O)c1cccc(c1)C(=O)N(C1CC3(CCN(CCOC(C)C)CC3)C1)[C@H](CC1(C(F)(F)F)CC1)CO2 [Compound 129, (11R)-6-(2,6-dimethylphenyl)-12-[7-(2-isopropoxyethyl)-7-azaspiro[3.5]nonan-2-yl]-2,2-dioxo-11-[[1-(trifluoromethyl)cyclopropyl]methyl]-9-oxa-2λ^6-thia-3,5,12,19-tetrazatricyclo[12.3.1.14,8]nonadeca-1(18),4(19),5,7,14,16-hexaen-13-one] | – | – | – | – | Ent. B Max Activity (%): +++ (+++ is >60%); pEC50 (read-out: Ent. B EC50): > 6.00
5 | Cc1cccc(C)c1-c1cc2nc(n1)NS(=O)(=O)c1cccc(c1)C(=O)N([C@H]1C[C@@H](C(C)(C)O)C1)[C@H](CC(C)(C)C)CO2 (single isomer, unassigned) [Compound 142] | – | – | +++ (+++ is >60%) | > 6.00 | –
6 | COCCN1CCC(n2cc(N3C(=O)c4cccc(c4)S(=O)(=O)Nc4nc(cc(-c5c(C)cccc5C)n4)OC[C@H]3CC(C)(C)C)cn2)CC1 [Compound 224] | – | – | + (+ is <300%) | – | –
7 | COC(=O)NC1CC2(C1)CC(N1C(=O)c3cccc(c3)S(=O)(=O)Nc3nc(cc(-c4c(C)cccc4C)n3)OC[C@H]1CC(C)(C)C)C2 (stereo partly drawn) [Compound 88, Methyl ((2S,4s,6S)-6-((R)-1^6-(2,6-dimethylphenyl)-7-neopentyl-3,3-dioxido-5-oxo-9-oxa-3-thia-2,6-diaza-1(2,4)-pyrimidina-4(1,3)-benzenacyclononaphane-6-yl)spiro[3.3]heptan-2-yl)carbamate] | +++ (+++ is >60%) | > 6.00 | – | – | –
8 | Cc1cccc(C)c1-c1cc2nc(n1)NS(=O)(=O)c1cccc(c1)C(=O)N([C@H]1C[C@H](OC(F)(F)C(F)(F)F)C1)[C@H](CC(C)C)CO2 [Compound 211] | – | – | + (+ is <300%) | – | –
9 | Cc1cccc(C)c1-c1cc2nc(n1)NS(=O)(=O)c1cccc(c1)C(=O)N(C1CC3(C1)CC(C(C)(C)O)C3)[C@H](CC(C)(C)C)CO2 (single isomer, unassigned) [Compound 117] | – | – | +++ (+++ is >60%) | > 6.00 | –
10 | Cc1cccc(C)c1-c1cc2nc(n1)NS(=O)(=O)c1cccc(c1)C(=O)N([C@@H]1CC[C@@H]1C1CC1)[C@H](CC(C)(C)C)CO2 (single isomer, unassigned) [Compound 148] | – | – | +++ (+++ is >60%) | > 6.00 | –
11 | Cc1cccc(C)c1-c1cc2nc(n1)NS(=O)(=O)c1cccc(c1)C(=O)N(c1cn(C)nc1C)[C@H](CC(C)(C)C)CO2 [Compound 227] | – | – | +++ (+++ is >60%) | > 6.00 | –
12 | Cc1cccc(C)c1-c1cc2nc(n1)NS(=O)(=O)c1cccc(c1)C(=O)N(C1CC3(CCN(C(=O)CO)CC3)C1)[C@H](CC(C)C)CO2 [Compound 25, (11R)-6-(2,6-Dimethylphenyl)-12-[7-(2-hydroxyacetyl)-7-azaspiro[3.5]nonan-2-yl]-11-isobutyl-2,2-dioxo-9-oxa-2λ^6-thia-3,5,12,19-tetrazatricyclo[12.3.1.14,8]nonadeca-1(18),4(19),5,7,14,16-hexaen-13-one] | +++ (+++ is >60%) | > 6.00 | – | – | –
13 | Cc1cccc(C)c1-c1cc2cc(n1)NS(=O)(=O)c1cccc(c1)C(=O)N(C1CC3(CC3)C1)[C@H](CC(C)C)CO2 [Compound 389] | – | – | – | – | Ent. B Max Activity (%): +++ (+++ is >60%); pEC50 (read-out: Ent. B EC50): > 6.00
14 | Cc1cccc(C)c1-c1cc2nc(n1)NS(=O)(=O)c1cccc(c1)C(=O)N([C@H]1C[C@@H](C(C)(C)O)C1)[C@H](CC(C)(C)C)CO2 (single isomer, unassigned) [Compound 141] | – | – | +++ (+++ is >60%) | > 6.00 | –
15 | Cc1cccc(C)c1-c1cc2nc(n1)NS(=O)(=O)c1cccc(c1)C(=O)N(C1CCN(C(=O)OC(C)C)C1)[C@H](CC(C)C)CO2 (single isomer, unassigned) [Compound 38] | – | – | – | – | Ent. B Max Activity (%): ++ (++ is 30-60%); pEC50 (read-out: Ent. B EC50): > 6.00
16 | COC1CC(N2C(=O)c3cccc(c3)S(=O)(=O)Nc3nc(cc(-c4c(C)cccc4C)n3)OC[C@H]2CC2(C(F)(F)F)CC2)C1 (stereo in doubt) [Compound 466] | – | – | – | – | Ent. B Max Activity (%): +++ (+++ is >60%); pEC50 (read-out: Ent. B EC50): > 6.00
17 | Cc1cccc(C)c1-c1cc2nc(n1)NS(=O)(=O)c1cccc(c1)C(=O)N(C1CC3(COC(=O)N3C)C1)[C@H](CC(C)(C)C)CO2 (single isomer, unassigned) [Compound 174] | – | – | ++ (++ is 30-60%) | > 6.00 | –
18 | COC(=O)N1CCC2(CC1)CC(N1C(=O)c3cccc(c3)S(=O)(=O)Nc3nc(cc(-c4c(C)cccc4C)n3)OC[C@H]1CC(C)(C)C(F)(F)F)C2 [Compound 191, Methyl 2-[(11R)-6-(2,6-dimethylphenyl)-2,2,13-trioxo-11-(3,3,3-trifluoro-2,2-dimethylpropyl)-9-oxa-2λ^6-thia-3,5,12,19-tetraazatricyclo[12.3.1.14,8]nonadeca-1(17),4(19),5,7,14(18),15-hexaen-12-yl]-7-azaspiro[3.5]nonane-7-carboxylate] | +++ (+++ is >60%) | > 6.00 | – | – | –

Continued, in another order:

Row | Ent. B Max Activity (%) (Table 9) | pEC50 (Table 9, read-out: Ent. B EC50) | Ent. B Max Activity (%) (Table 10) | pEC50 [1] | SMILES | other results
19 | +++ (+++ is >60%) | > 6.00 | – | – | CC(=O)N1CC2(CC(N3C(=O)c4cccc(c4)S(=O)(=O)Nc4nc(cc(-c5c(C)cccc5C)n4)OC[C@H]3CC3(C(F)(F)F)CC3)C2)C1 [Compound 452] | –
20 | +++ (+++ is >60%) | > 6.00 | – | – | Cc1cccc(C)c1-c1cc2nc(n1)NS(=O)(=O)c1cccc(c1)C(=O)N(C1CC3(CCN(C4CC(F)(F)C4)CC3)C1)[C@H](CC(C)C)CO2 [Compound 276] | –
21 | +++ (+++ is >60%) | > 6.00 | – | – | Cc1cccc(C)c1-c1cc2nc(n1)NS(=O)(=O)c1cccc(c1)C(=O)N(C1CC(NC(=O)OC(C)C)C1)[C@H](CC(C)(C)C)CO2 (stereo in doubt) [Compound 451] | –
22 | +++ (+++ is >60%) | > 6.00 | – | – | CCC(=O)NC1CC(N2C(=O)c3cccc(c3)S(=O)(=O)Nc3nc(cc(-c4c(C)cccc4C)n3)OC[C@H]2CC(C)(C)C)C1 (stereo in doubt) [Compound 446] | –
23 | +++ (+++ is >60%) | > 6.00 | – | – | Cc1cccc(C)c1-c1cc2nc(n1)NS(=O)(=O)c1cccc(c1)C(=O)N(C1CC3(CC(N)C3)C1)[C@H](CC(C)C)CO2 (stereo in doubt) [Compound 292] | –
24 | +++ (+++ is >60%) | > 6.00 | – | – | Cc1cccc(C)c1-c1cc2nc(n1)NS(=O)(=O)c1cccc(c1)C(=O)N(C1CCN(C)CC1)CC(CC(C)C)CO2 (stereo not shown) [Compound 441] | –
